Assay results as given in patent US4734493A, “Novel anthracycline antibiotics” (Sanraku, Incorporated, priority 1985, dated 1988).
Converted amounts (≈) assume the structure as drawn. Where two headings read alike, the source gives them in different places.

Columns and labels:
[1] = system: mouse leukemia L1210 culture cell; assay: Proliferation inhibiting action against mouse leukemia L1210 culture cells; assay type: cell-based
Method: (§1) For example, […] of L1210 cells were inoculated, on RPM 11640 medium (Rosewellberg Research Institute) containing 20% bovine serum and the compound of the present invention was supplemented in a concentration of 0.0005 to 0.25 μg/ml followed by culturing at 37° C. in a carbon dioxide gas incubator. A 50% proliferation inhibiting concentration was determined as compared to control. Further the aforesaid L1210 culture cells were suspended in 8×10^5 cells/ml in RPM 11640 medium containing 10% bovine serum. After culturing at 37° C. for 1 to 2 hours in a carbon dioxide gas incubator, the compound of the present invention was supplemented in various concentrations. Fifteen minutes after, ^14 C-uridine (0.05 μCi/ml) or ^14 C-thymidine (0.05 μCi/ml) was added to the system followed by culturing at 37° C. for 60 minutes. To the reaction mixture was added chilled 10% trichloroacetic acid to discontinue the reaction. At the same time, insoluble matters were precipitated, further washed twice with chilled 5% trichloroacetic acid and then dissolved in formic acid to provide for measurement of the radioactivity. A 50% intake inhibiting concentration was determined from a rate of intake of the radioactivity in the control group added with no compound.

[2] = system: DNA synthesis in mouse leukemia L1210 culture cell; assay: Nucleic acid synthesis inhibiting action: DNA synthesis (14C-thymidine intake) in L1210 culture cells; assay type: cell-based; conditions: 1 h, 60 minutes, 10% bovine serum, 37° C., read-out: 50% Inhibiting Concentration (IC50), Inhibition of DNA Synthesis
Method: as §1

murine L1210 leukemia = assay: In vivo antitumor activity against murine L1210 leukemia in CDF1 mice
Method: The therapeutic effect of obelmycins were studied on CDF1 mice bearing L1210 leukemia, From 24 hours after 1×10^5 L1210 cells/animal were intraperitoneally transplanted to CDF1 mice, Obelmycins were intraperitoneally given everyday for 10 days. The prolongation of the survival time was calculated relative to control animals receiving physiological saline as 100.
Inoculation: 1×10^5 cells/mouse (ip)
Treatment: day 1 to 10, daily (ip)

[3] = system: RNA synthesis in mouse leukemia L1210 culture cell; assay: Nucleic acid synthesis inhibiting action: RNA synthesis (14C-uridine intake) in L1210 culture cells; assay type: cell-based; conditions: 1 h, 60 minutes, 10% bovine serum, 37° C., read-out: 50% Inhibiting Concentration (IC50), Inhibition of RNA Synthesis
Method: as §1

[4] = L1210, read-out: 50% Inhibiting Concentration (IC50), Inhibition of Cell Proliferation
[5] = dose 3.1 μg/kg/day ip, daily day 1 to 10, CDF1 mice n=6, survival time relative to saline control as 100
[6] = L1210 cells, RPM 11640 medium with 20% bovine serum, 37° C., read-out: 50% Inhibiting Concentration (IC50), Inhibition of Cell Proliferation

Compound | IC50 [1, 4] | IC50 [2] | Antitumor effect T C (%) (murine L1210 leukemia; [5]) | IC50 [3] | Antitumor effect T C (%) (murine L1210 leukemia; dose 12.5 μg/kg/day ip, daily day 1 to 10, CDF1 mice n=6, survival time relative to saline control as 100) | IC50 [1, 6] | Antitumor effect T C (%) (murine L1210 leukemia; ip, 0.1 mg/kg, 24 h) | Antitumor effect T C (%) (murine L1210 leukemia; ip, 0.025 mg/kg, 24 h) | Antitumor effect T C (%) (murine L1210 leukemia; dose 200 μg/kg/day ip, daily day 1 to 10, CDF1 mice n=6, survival time relative to saline control as 100)
CCC1(O)CC(OC2CC(N(C)C)C(OC3CC(O)C(OC4CCC(O)C(C)O4)C(C)O3)C(C)O2)c2c(O)c3c(c(O)c2C1OC1CC(N(C)C)C(OC2CCC(OC4CCC(O)C(C)O4)C(C)O2)C(C)O1)C(=O)c1c(O)ccc(O)c1C3=O (stereo not shown) [Obelmycin C] | 0.001 µg/mL (≈ 0.000841 µM) | 0.38 µg/mL (≈ 0.32 µM) | 145% | 0.043 µg/mL (≈ 0.0362 µM) | – | – | – | – | –
CCC1(O)CCc2c(O)c3c(c(O)c2C1OC1CC(N(C)C)C(OC2CCC(OC4CCC(O)C(C)O4)C(C)O2)C(C)O1)C(=O)c1c(O)ccc(O)c1C3=O (stereo not shown) [Obelmycin E] | 0.062 µg/mL (≈ 0.0803 µM) | 1.3 µg/mL (≈ 1.68 µM) | – | 0.78 µg/mL (≈ 1.01 µM) | 135% | – | – | – | –
CCC1(O)CC(OC2CC(N(C)C)C(O)C(C)O2)c2c(O)c3c(c(O)c2C1O)C(=O)c1c(O)ccc(O)c1C3=O (stereo not shown) [Obelmycin A] | – | 0.58 µg/mL (≈ 1.04 µM) | – | 0.14 µg/mL (≈ 0.25 µM) | – | 0.001 µg/mL (≈ 0.00179 µM) | 185% | – | –
CCC1(O)CCc2c(O)c3c(c(O)c2C1OC1CC(N(C)C)C(OC2CC(O)C(OC4CCC(O)C(C)O4)C(C)O2)C(C)O1)C(=O)c1c(O)ccc(O)c1C3=O (stereo not shown) [Obelmycin F] | – | 1.43 µg/mL (≈ 1.82 µM) | – | 0.6 µg/mL (≈ 0.762 µM) | – | 0.092 µg/mL (≈ 0.117 µM) | – | 130% | –
CCC1(O)CC(OC2CC(N(C)C)C(OC3CC(O)C(OC4CCC(O)C(C)O4)C(C)O3)C(C)O2)c2c(O)c3c(c(O)c2C1OC1CC(N(C)C)C(OC2CC(O)C(OC4CCC(O)C(C)O4)C(C)O2)C(C)O1)C(=O)c1c(O)ccc(O)c1C3=O (stereo not shown) [Obelmycin D] | 0.004 µg/mL (≈ 0.00332 µM) | 1.2 µg/mL (≈ 0.996 µM) | 140% | 0.175 µg/mL (≈ 0.145 µM) | – | – | – | – | –
CCC1(O)CC(OC2CC(N(C)C)C(OC3CCC(OC4CCC(O)C(C)O4)C(C)O3)C(C)O2)c2c(O)c3c(c(O)c2C1OC1CC(N(C)C)C(OC2CCC(OC4CCC(O)C(C)O4)C(C)O2)C(C)O1)C(=O)c1c(O)ccc(O)c1C3=O (stereo not shown) [Obelmycin B] | 0.0009 µg/mL (≈ 0.000767 µM) | 0.26 µg/mL (≈ 0.222 µM) | 150% | 0.025 µg/mL (≈ 0.0213 µM) | – | – | – | – | –
CCC1(O)CCc2c(O)c3c(c(O)c2C1OC1CC(N(C)C)C(O)C(C)O1)C(=O)c1c(O)ccc(O)c1C3=O (stereo not shown) [Obelmycin G] | – | 1.5 µg/mL (≈ 2.76 µM) | – | 1.1 µg/mL (≈ 2.02 µM) | – | 0.2 µg/mL (≈ 0.368 µM) | – | – | 145%
